According to ChEMBL document CHEMBL2384948, “Aeruginosins from a Microcystis sp. bloom material collected in Varanasi, India” (J Nat Prod, 2013):

Molecular target: Trypsin (Homo sapiens, UniProt P07477+P07478+P35030)
Assay: Inhibition of trypsin (unknown origin)
Assay type: protein assay

Row | SMILES | IC50
1 | CC(C)C[C@@H](NC(=O)[C@H](O)Cc1ccc(O)c(Br)c1)C(=O)N1[C@H](C(=O)NCCCCNC(=N)N)C[C@@H]2CC[C@@H](O)C[C@@H]21 | 4.1 µM
2 | N=C(N)NCCCCNC(=O)[C@@H]1C[C@@H]2CC[C@@H](O)C[C@@H]2N1C(=O)[C@H](Cc1ccccc1)NC(=O)[C@@H](O)Cc1ccc(O)cc1 | 0.5 µg/mL
3 | CC(C)C[C@@H](NC(=O)[C@H](O)Cc1ccc(O)c(Cl)c1)C(=O)N1[C@H](C(=O)NCCCCNC(=N)N)C[C@@H]2CC[C@@H](O)C[C@@H]21 | 4.3 µM
4 | CC[C@H](C)[C@@H](NC(=O)[C@@H](O)Cc1ccc(O)c(Cl)c1)C(=O)N1[C@H](C(=O)NCCCCNC(=N)N)C[C@@H]2CC[C@@H](O)C[C@@H]21 | 2.8 µM
